ChEMBL document CHEMBL1201862, “PubChem BioAssay data set” (2004)
Calls of active or inactive are those of the source.

What was measured:
Assay type in all cases: functional
[1] = target: T1, Leucine aminopeptidase (Plasmodium falciparum 3D7, UniProt Q8IL11); assay: P. falciparum M17LAP inhibitors, primary screen, biochemical, fluorogenic H-Leu-NHMec substrate, 1536-well (AID 1619)
T1 sequence (Q8IL11 whole entry): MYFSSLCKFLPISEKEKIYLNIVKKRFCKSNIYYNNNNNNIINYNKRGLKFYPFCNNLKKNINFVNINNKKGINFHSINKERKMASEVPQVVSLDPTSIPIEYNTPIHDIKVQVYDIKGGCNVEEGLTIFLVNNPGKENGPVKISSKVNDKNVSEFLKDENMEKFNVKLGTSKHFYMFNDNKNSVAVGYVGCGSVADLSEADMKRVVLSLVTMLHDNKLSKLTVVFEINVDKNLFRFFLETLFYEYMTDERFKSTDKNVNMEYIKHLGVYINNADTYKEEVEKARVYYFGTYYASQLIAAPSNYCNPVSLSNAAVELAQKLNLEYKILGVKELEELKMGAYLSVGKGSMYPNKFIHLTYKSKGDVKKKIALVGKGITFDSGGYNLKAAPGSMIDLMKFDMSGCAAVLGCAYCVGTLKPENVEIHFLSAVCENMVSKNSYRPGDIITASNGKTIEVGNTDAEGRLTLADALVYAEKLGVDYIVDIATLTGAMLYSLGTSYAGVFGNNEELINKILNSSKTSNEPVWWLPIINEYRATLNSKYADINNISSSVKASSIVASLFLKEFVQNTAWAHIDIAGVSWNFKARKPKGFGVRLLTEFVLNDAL

[2] = target: Genome polyprotein (dengue virus type 2, UniProt P29990); assay: Dengue-2 NS5 methyltransferase inhibitors, primary screen, biochemical, confirmation dose response (AID 588689)
Genome polyprotein, sequence (P29990 2492-3391 limits assumed): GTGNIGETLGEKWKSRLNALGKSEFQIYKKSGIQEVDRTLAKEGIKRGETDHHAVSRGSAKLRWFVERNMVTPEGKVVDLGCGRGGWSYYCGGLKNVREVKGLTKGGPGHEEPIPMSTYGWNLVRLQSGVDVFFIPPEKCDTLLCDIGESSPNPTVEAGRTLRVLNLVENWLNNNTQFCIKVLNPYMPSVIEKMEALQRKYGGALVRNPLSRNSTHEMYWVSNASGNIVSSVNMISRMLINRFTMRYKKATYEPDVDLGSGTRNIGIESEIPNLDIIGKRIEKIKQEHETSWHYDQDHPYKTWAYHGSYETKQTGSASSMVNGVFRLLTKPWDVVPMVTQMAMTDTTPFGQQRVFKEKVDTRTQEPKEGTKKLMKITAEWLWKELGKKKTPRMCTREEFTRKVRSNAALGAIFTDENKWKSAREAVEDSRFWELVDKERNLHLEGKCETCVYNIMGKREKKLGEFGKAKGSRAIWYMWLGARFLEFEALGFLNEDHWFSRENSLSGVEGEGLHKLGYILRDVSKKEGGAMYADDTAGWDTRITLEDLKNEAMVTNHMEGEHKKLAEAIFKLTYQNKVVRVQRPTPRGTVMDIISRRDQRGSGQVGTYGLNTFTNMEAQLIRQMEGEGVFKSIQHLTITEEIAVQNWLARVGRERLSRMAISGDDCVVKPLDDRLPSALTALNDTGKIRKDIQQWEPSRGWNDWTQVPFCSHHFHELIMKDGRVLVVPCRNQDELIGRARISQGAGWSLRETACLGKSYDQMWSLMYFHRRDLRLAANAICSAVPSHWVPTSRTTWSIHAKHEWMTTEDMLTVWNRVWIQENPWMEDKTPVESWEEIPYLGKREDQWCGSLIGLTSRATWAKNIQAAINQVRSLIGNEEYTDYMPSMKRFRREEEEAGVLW

[3] = target: T2, Replicative DNA helicase DnaB (Mycobacterium tuberculosis, UniProt P9WMR3); assay: DnaB intein splicing inhibitors, dose response, biochemical, cell-free fluorescence (AID 449749)
T2 sequence (P9WMR3 whole entry): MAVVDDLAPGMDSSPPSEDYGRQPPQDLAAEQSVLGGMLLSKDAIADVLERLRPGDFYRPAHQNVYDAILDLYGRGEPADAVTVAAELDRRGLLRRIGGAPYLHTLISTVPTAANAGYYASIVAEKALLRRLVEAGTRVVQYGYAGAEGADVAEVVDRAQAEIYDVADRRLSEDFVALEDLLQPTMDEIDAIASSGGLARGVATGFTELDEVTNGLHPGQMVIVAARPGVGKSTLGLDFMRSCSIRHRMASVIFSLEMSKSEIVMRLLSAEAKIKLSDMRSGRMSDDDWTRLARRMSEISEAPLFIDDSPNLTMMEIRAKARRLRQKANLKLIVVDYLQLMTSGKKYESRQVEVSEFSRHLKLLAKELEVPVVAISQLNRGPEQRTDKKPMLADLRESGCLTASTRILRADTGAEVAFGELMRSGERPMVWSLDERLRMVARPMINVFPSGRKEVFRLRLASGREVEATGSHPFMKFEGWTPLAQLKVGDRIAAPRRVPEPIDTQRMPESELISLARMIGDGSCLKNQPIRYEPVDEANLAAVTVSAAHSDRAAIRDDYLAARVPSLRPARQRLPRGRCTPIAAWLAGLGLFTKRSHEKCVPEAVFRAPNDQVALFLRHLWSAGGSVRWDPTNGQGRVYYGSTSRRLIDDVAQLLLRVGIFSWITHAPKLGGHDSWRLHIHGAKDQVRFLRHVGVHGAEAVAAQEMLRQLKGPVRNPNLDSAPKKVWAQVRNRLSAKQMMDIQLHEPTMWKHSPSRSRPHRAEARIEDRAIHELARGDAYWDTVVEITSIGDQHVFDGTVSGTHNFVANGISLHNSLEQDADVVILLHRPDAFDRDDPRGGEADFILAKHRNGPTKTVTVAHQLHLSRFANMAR

[4] = target: T3, Protein RecA (Mycobacterium tuberculosis, UniProt P9WHJ3); assay: Fluorescence Cell-Free Homogeneous Dose Retest to Identify Inhibitors of RecA-Intein Splicing Activity. [Related pubchem assays (depositor defined):AID2097, AID2223, AID489010, AID492950]
T3 sequence (P9WHJ3 whole entry): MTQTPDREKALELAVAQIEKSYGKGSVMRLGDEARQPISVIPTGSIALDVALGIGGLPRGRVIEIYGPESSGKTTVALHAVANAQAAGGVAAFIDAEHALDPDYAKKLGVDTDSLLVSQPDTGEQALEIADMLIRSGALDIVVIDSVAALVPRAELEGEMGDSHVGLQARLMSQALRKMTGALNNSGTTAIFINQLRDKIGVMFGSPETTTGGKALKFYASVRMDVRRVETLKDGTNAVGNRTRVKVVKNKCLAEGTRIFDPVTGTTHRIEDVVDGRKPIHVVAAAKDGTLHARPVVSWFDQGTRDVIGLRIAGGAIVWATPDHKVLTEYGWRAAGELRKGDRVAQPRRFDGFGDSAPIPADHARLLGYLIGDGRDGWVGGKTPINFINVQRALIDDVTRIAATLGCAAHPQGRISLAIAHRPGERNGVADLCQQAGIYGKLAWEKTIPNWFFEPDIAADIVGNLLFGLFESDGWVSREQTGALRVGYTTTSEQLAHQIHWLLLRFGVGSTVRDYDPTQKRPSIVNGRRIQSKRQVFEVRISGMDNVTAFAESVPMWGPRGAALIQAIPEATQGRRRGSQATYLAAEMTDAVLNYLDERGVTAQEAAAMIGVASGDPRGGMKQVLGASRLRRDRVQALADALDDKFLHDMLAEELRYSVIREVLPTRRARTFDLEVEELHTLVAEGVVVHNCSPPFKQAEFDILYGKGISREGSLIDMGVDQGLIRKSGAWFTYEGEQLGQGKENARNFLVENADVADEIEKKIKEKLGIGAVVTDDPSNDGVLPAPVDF

[5] = system: P388; assay: cells; details: Mus musculus
[6] = system: P388/ADR; assay: cells; details: Mus musculus
[7] = target: T4, Short transient receptor potential channel 4 (Mus musculus, UniProt Q9QUQ5); assay: mouse TRPC4 channel inhibitors, dose response, cell-based, HEK293 TRPC4/mu-opioid, Fluo-4 calcium (AID 434942);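 note: potency of inhibitors blocking the TRPC4 calcium response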
T4 sequence (Q9QUQ5 whole entry): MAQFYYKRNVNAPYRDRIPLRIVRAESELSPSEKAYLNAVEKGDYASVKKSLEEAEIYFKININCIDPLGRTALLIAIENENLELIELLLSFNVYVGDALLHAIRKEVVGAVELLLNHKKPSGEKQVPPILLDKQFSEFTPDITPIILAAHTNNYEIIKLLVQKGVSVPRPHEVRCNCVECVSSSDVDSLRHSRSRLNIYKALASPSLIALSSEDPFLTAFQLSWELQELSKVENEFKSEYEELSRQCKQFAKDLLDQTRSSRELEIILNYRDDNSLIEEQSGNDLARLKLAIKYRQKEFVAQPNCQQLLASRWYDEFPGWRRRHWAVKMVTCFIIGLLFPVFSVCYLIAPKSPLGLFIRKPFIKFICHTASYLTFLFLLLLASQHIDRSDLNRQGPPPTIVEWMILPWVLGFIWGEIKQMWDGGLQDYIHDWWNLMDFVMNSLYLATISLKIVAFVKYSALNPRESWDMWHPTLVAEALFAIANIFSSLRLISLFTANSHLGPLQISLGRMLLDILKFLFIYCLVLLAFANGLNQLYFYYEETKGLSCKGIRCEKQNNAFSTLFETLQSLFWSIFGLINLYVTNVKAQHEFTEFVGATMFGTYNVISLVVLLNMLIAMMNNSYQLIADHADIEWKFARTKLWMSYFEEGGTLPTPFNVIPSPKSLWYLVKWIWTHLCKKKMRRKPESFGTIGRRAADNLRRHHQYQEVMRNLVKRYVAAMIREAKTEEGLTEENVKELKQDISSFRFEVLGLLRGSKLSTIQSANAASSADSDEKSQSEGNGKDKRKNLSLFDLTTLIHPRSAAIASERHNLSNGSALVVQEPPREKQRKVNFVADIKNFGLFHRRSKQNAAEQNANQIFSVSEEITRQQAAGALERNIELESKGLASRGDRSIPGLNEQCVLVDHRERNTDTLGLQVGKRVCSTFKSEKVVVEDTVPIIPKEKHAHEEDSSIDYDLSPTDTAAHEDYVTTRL

[8] = target: Induced myeloid leukemia cell differentiation protein Mcl-1 (Homo sapiens, UniProt Q07820)
Induced myeloid leukemia cell differentiation protein Mcl-1, sequence (Q07820 whole entry): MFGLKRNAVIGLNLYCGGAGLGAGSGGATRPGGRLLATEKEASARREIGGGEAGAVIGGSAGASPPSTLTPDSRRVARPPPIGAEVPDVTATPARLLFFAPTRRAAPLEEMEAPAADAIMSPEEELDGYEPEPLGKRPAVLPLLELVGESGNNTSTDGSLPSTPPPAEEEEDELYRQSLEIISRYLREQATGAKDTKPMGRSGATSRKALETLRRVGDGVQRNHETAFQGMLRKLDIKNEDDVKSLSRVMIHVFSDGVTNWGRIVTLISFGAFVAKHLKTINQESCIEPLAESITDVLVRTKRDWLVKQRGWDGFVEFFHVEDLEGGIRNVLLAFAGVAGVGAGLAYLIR

[9] = system: SN12K1; assay: cells; details: Homo sapiens
[10] = growth suppression of PTEN-null colon cells, dose response, cell-based, HCT116 PTEN knockout (AID 1047);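 note: HCT116 colon tumor cells with PTEN knocked out; cells exposed to compound for 60 hours before readout; potency for loss of cell viability measured by luminescence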
[11] = growth suppression of beta-catenin-knockout colon cells, dose response, cell-based, HCT116, human colon tumor (AID 1045);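 note: HCT116 colon tumor cells with beta catenin knocked out; cells exposed to compound for 60 hours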
[12] = target: T5, DNA repair and recombination protein RAD54-like (Homo sapiens, UniProt Q92698); assay: inhibitors of human RAD54 branch migration, confirmation, biochemical, fluorescence, cherry-picked samples, dose series (AID 651657)
T5 sequence (Q92698 whole entry): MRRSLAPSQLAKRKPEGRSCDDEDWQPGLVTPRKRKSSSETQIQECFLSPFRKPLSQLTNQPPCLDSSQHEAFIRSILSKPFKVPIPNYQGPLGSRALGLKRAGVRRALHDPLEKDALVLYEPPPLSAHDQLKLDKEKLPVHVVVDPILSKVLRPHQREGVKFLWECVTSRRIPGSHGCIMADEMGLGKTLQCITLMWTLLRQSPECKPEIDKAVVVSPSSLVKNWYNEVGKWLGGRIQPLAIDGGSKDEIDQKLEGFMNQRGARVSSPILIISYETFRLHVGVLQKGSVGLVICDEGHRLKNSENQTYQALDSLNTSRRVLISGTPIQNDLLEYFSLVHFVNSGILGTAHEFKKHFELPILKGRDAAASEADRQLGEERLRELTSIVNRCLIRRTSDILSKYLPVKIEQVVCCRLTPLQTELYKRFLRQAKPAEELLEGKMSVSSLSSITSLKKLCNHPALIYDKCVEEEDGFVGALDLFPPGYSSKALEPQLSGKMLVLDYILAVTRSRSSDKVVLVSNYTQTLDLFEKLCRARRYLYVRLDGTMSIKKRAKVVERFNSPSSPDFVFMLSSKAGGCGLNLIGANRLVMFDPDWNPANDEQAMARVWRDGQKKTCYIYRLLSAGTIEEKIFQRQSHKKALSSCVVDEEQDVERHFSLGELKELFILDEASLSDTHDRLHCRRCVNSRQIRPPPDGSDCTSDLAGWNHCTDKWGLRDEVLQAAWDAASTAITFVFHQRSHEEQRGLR

## CC1CCN(S(=O)(=O)c2ccc(NC(=O)CSc3ncccc3C(=O)O)cc2)CC1
[1]
  IC50: 9.68 µM (active)

## CCOc1ccc(NC(=O)CSCC(=O)O)cc1
[1]
  IC50: 9.94 µM (active)

## CC1=NN(c2ccccc2)C(=O)/C1=C\c1ccc(Oc2ccc([N+](=O)[O-])cc2[N+](=O)[O-])cc1
[2]
  IC50: 19.3 µM (active)
[3]
  AC50: 3.66 µM (active)
[4]
  EC50: 5.33 µM (active)

## COc1cc([C@@H]2c3cc4c(c(O)c3C[C@H]3COC(=O)[C@@H]32)OCO4)cc(OC)c1OC [BETA-PELTATIN A]
[5]
  GI50: 0.015 µM (active)
[6]
  GI50: 0.015 µM (active)

## CC(/C=C1\SC(=S)N(C(C(=O)O)C(C)C)C1=O)=C\c1ccccc1 (centres undefined)
[2]
  IC50: 34.3 µM (active)
[7]
  EC50: 5.96 µM (active)

## Cc1sccc1/C=N/NC(=O)c1cccc2ccccc12
[8]
  IC50: 21.1 µM (not active)

## Cc1[nH]c2ccccc2c1/C=C/c1nc2ccccc2c(=O)[nH]1
[8]
  IC50: 5.55 µM (active)

## Nc1ccc2c(c1)CN1C(=O)c3ccccc3C1=N2 [DANIQUIDONE]
[9]
  GI50: 23.6 µM (inactive)
[5]
  GI50: 4.36 µM (inactive)
[6]
  GI50: 24.8 µM (inactive)

## O=C(NC1CN2CCC1CC2)c1cc(Cl)c([N+](=O)[O-])c2nc[nH]c12 (centres undefined)
[10]
  EC50: 16.3 µM (active)
[11]
  EC50: 12.1 µM (active)
[12]
  AC50: 41.6 µM (active)

## COc1cc(C2c3cc4c(cc3[C@@H](Nc3ccc5c(c3)OCO5)C3COC(=O)[C@H]23)OCO4)cc(OC)c1O (some centres undefined)
[9]
  GI50: < 0.0414 µM (active)
[5]
  GI50: < 0.01 µM (active)
[6]
  GI50: 0.0548 µM (active)

## c1ccc2c(c1)SP1Sc3ccccc3P21 (centres undefined)
[9]
  GI50: 56.5 µM (inactive)
[5]
  GI50: 54.2 µM (inactive)
[6]
  GI50: 28.2 µM (inactive)

## COc1ccc(CNc2nc3nc(-c4ccccc4)cc(O)n3n2)cc1OC
[1]
  IC50: 24.2 µM (active)

## CC1(C)OC2CC(=O)OCC23C1CC(=O)C1(C)C3CCC2(C)C(c3ccoc3)OC(=O)C3OC321 (centres undefined)
[9]
  GI50: 119 µM (inactive)
[5]
  GI50: > 39.5 µM (inactive)
[6]
  GI50: > 125 µM (inactive)

## COc1cccc2c1C(=O)c1c(O)c3c(c(O)c1C2=O)C[C@@](O)(C(C)=O)C[C@@H]3OC1CC(N(C)C)C(O)C(C)O1 (some centres undefined)
[9]
  GI50: 0.01 µM (active)
[5]
  GI50: 0.01 µM (active)
[6]
  GI50: 0.01 µM (active)

## CCc1ccc(NC(=O)C2CCCCC2C(=O)O)cc1 (centres undefined)
[1]
  IC50: 12.1 µM (active)

## CN(C)C(=O)OCOC(=O)N(C)C
[9]
  GI50: > 100 µM (inactive)
[5]
  GI50: 66.8 µM (inactive)
[6]
  GI50: > 100 µM (inactive)
